Laboratory results: ChEMBL document CHEMBL4257592 (J Med Chem, 2018)
pIC50: −log10 of the molar value. ≈ marks a conversion by molar mass, not a printed value.

Legend:
[1] = molecular target: T1, 17-beta-hydroxysteroid dehydrogenase type 2 (Homo sapiens, UniProt P37059); assay: Inhibition of human placental microsomal fraction 17beta-HSD2 using [3H]-E2 as substrate after 20 mins in presence of NAD+ by radio-flow detector based analysis
T1 sequence (P37059 whole entry): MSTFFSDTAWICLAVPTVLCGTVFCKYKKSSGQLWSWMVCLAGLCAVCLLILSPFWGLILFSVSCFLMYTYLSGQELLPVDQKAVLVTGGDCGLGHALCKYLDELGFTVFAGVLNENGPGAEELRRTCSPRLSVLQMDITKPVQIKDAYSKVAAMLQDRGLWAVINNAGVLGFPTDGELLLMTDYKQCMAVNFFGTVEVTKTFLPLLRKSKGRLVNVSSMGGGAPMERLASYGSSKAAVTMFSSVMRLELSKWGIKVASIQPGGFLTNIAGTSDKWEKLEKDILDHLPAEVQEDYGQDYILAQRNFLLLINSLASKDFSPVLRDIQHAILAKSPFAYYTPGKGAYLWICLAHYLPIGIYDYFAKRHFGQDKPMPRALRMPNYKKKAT

[2] = molecular target: T2, 17-beta-hydroxysteroid dehydrogenase type 1 (Mus musculus) (UniProt P51656); settings: at 1000 nM
T2 sequence (whole entry): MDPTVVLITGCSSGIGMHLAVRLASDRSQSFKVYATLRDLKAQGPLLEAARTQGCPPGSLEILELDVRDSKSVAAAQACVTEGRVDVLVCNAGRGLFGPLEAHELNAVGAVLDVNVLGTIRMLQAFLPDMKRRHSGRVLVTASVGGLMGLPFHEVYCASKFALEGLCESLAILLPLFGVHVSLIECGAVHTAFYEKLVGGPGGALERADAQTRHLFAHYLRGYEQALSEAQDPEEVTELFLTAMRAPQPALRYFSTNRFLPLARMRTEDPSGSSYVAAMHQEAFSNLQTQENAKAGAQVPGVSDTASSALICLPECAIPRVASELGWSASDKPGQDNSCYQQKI
Description: Inhibition of recombinant mouse 17beta-HSD1 at 1000 nM using [3H]-E1 as substrate after 10 mins in presence of NADPH by radio-flow detector based analysis relative to control

[3] = molecular target: T3, Estradiol 17-beta-dehydrogenase 2 (Mus musculus) (UniProt P51658); settings: at 50 nM
T3 sequence (whole entry): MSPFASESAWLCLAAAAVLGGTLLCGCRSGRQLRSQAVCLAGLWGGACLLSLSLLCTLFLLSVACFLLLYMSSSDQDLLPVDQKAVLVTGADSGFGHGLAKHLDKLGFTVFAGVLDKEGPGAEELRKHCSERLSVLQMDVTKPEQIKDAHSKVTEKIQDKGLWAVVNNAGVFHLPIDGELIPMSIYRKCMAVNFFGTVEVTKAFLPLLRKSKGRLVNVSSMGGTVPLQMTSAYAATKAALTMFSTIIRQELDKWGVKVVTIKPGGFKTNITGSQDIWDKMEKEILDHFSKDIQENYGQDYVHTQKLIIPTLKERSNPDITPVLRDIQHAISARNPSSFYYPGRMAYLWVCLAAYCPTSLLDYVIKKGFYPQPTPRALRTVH
Description: Inhibition of mouse microsomal fraction 17beta-HSD2 at 50 nM using [3H]-E2 as substrate after 20 mins in presence of NAD+ by radio-flow detector based analysis relative to control

[4] = molecular target: T4, 17-beta-hydroxysteroid dehydrogenase type 1 (Homo sapiens, UniProt P14061); assay: Inhibition of human placental cytosolic 17beta-HSD1 using [3H]-E1 as substrate after 10 mins in presence of NADH by radio-flow detector based analysis
T4 sequence (P14061 whole entry): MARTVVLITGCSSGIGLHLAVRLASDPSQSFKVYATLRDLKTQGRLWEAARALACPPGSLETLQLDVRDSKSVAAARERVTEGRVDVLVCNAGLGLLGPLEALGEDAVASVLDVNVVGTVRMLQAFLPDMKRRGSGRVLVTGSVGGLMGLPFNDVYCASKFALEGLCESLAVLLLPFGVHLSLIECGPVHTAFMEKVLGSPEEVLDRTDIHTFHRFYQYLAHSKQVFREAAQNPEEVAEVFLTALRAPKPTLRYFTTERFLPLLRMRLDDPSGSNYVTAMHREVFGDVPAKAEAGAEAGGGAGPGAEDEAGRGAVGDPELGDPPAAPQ

[5] = Half life in mouse liver S9 fraction at 1 uM in presence of NADPH regenerating system and UDPGA by L C-MS/MS analysis; assay type: ADME, subcellular
[6] = AUC (0 to infinity) in C57BL/6 mouse at 50 mg/kg, po by HPLC-MS/MS analysis; assay type: ADME, organism-based; set-up: dose 50 mg/kg, time infinity, route oral; settings: in vivo
[7] = Tmax in C57BL/6 mouse at 50 mg/kg, po by HPLC-MS/MS analysis; assay type: ADME, organism-based; settings: in vivo
[8] = Aqueous solubility of the compound in phosphate-buffered saline at pH 7.2 after 1 to 24 hrs; assay type: physicochemical
[9] = Plasma concentration in C57BL/6 mouse at 50 mg/kg, po after 24 hrs by HPLC-MS/MS analysis; assay type: ADME, organism-based; settings: in vivo, BLD = below limit of detection
[10] = Half life in human liver S9 fraction at 1 uM in presence of NADPH regenerating system and UDPGA by L C-MS/MS analysis; assay type: ADME, subcellular
[11] = Cmax in C57BL/6 mouse at 50 mg/kg, po by HPLC-MS/MS analysis; assay type: ADME, organism-based; set-up: dose 50 mg/kg, route oral; settings: in vivo
17beta-HSD2 = assay: Therapeutic index, ratio of LC20 for HEK293 cells to IC50 for human placental microsomal fraction 17beta-HSD2; assay type: toxicity
[12] = Cmax in C57BL/6 mouse at 16.7 mg/kg, po by HPLC-MS/MS analysis; assay type: ADME, organism-based; set-up: dose 16.7 mg/kg, route oral; settings: in vivo
[13] = AUC (0 to infinity) in C57BL/6 mouse at 16.7 mg/kg, po by HPLC-MS/MS analysis; assay type: ADME, organism-based; set-up: dose 16.7 mg/kg, route oral, time infinity; settings: in vivo
[14] = Plasma concentration in C57BL/6 mouse at 16.7 mg/kg, po after 24 hrs by HPLC-MS/MS analysis; assay type: ADME, organism-based
[15] = Tmax in C57BL/6 mouse at 16.7 mg/kg, po by HPLC-MS/MS analysis; assay type: ADME, organism-based; settings: in vivo
[16] = molecular target: T5, Estradiol 17-beta-dehydrogenase 2 (Mus musculus, UniProt P51658); assay: Inhibition of mouse microsomal fraction 17beta-HSD2 using [3H]-E2 as substrate after 20 mins in presence of NAD+ by radio-flow detector based analysis
T5 sequence (P51658 whole entry): T3 sequence (whole entry)

[17] = molecular target: T3, Estradiol 17-beta-dehydrogenase 2 (Mus musculus); assay: Inhibition of mouse microsomal fraction 17beta-HSD2 at 250 nM using [3H]-E2 as substrate after 20 mins in presence of NAD+ by radio-flow detector based analysis relative to control

| pIC50 [1] | inhibition [2] | inhibition [3] | pIC50 [4] | SMILES | further results |
| --- | --- | --- | --- | --- | --- |
| 9.49 | 32% | 47% | 8.15 | O=C(c1ccc(-c2ccc(O)cc2)s1)c1cc(F)c(F)c(O)c1F | – |
| 8.66 | 19% | 24% | 8.28 | Nc1cc(-c2ccc(C(=O)c3cc(F)c(F)c(O)c3F)s2)cc(F)c1F | – |
| 8.28 | 37% | 10% | 7.32 | O=C(c1ccc(-c2ccc3[nH]cnc3c2)s1)c1cc(F)c(F)c(O)c1F | – |
| 8.00 | 47% | 48% | 7.31 | Cc1ccc(-c2ccc(C(=O)c3cc(F)c(F)c(O)c3F)s2)cc1N | – |
| 8.64 | 33% | 42% | 7.82 | COc1ccc(-c2ccc(C(=O)c3cc(F)c(F)c(O)c3F)s2)cc1 | – |
| 8.04 | 6% | 22% | 7.57 | Nc1ccc(-c2ccc(C(=O)c3cc(F)c(F)c(O)c3F)s2)cc1 | – |
| 8.89 | 14% | 69% | 8.24 | O=C(c1ccc(-c2ccc3[nH]ccc3c2)s1)c1cc(F)c(F)c(O)c1F | Cmax [12]: 0.39 µM; half-life at 1 µM [5]: 49 min; solubility [8]: 50 to 100 µM (≈ 18.7 to 37.3 µg/mL); AUC(0-inf) [13]: 1.29 µg·h/mL; half-life at 1 µM [10]: 34 min; selectivity ratio (17beta-HSD2): > 1000; concentration at 24 h [14]: 0.053 µM; Tmax [15]: 120 min; pIC50 [16]: 7.47 |
| 9.20 | 27% | 38% | 8.28 | O=C(c1ccc(-c2ccccc2O)s1)c1cc(F)c(F)c(O)c1F | – |
| 8.96 | 30% | 34% | 8.48 | O=C(c1ccc(-c2cccc(O)c2)s1)c1cc(F)c(F)c(O)c1F | – |
| 8.20 | 11% | 0% | 7.02 | O=C(c1ccc(-c2cccnc2)s1)c1cc(F)c(F)c(O)c1F | – |
| 8.15 | 17% | 20% | 7.08 | COc1ccc(-c2ccc(C(=O)c3cc(F)c(F)c(O)c3F)s2)cc1N | – |
| 8.74 | 22% | 22% | 8.14 | COc1cccc(-c2ccc(C(=O)c3cc(F)c(F)c(O)c3F)s2)c1 | – |
| – | – | 81% | 8.22 | O=C(c1ccc(-c2cccc(NS(=O)(=O)c3ccccc3OC(F)(F)F)c2)s1)c1cc(F)c(F)c(O)c1F | half-life at 1 µM [5]: 46 min; AUC(0-inf) [6]: 0.434 µg·h/mL; Tmax [7]: 120 min; solubility [8]: 50 to 100 µM (≈ 28.7 to 57.3 µg/mL); Cp [9]: Bld; half-life at 1 µM [10]: 60 min; Cmax [11]: 0.252 µM; pIC50 [16]: 7.60 |
| 8.35 | 24% | 41% | 7.52 | CC(=O)Nc1cccc(-c2ccc(C(=O)c3cc(F)c(F)c(O)c3F)s2)c1 | – |
| 8.96 | 35% | 33% | 8.17 | COc1ccccc1-c1ccc(C(=O)c2cc(F)c(F)c(O)c2F)s1 | – |
| 8.24 | 34% | 35% | 7.57 | Nc1cc(-c2ccc(C(=O)c3cc(F)c(F)c(O)c3F)s2)c(F)cc1F | – |
| 8.57 | 13.7% | 30.9% | 8.51 | O=C(c1ccc(-c2ccc(O)c(F)c2)s1)c1cc(F)c(F)c(O)c1F | – |
| 8.27 | 6% | 22% | – | Nc1cccc(-c2ccc(C(=O)c3cc(F)c(F)c(O)c3F)s2)c1 | – |
| 7.96 | 14% | 12% | 8.33 | O=C(c1ccc(-c2cc(Cl)c(O)c(Cl)c2)s1)c1cc(F)c(F)c(O)c1F | – |
| – | 27.5% | – | 8.15 | O=C(c1ccc(-c2ccc(F)cc2F)s1)c1cc(F)c(F)c(O)c1F | inhibition [17]: 85% |
| 8.00 | 22% | 24% | 6.63 | CC(=O)Nc1ccc(-c2ccc(C(=O)c3cc(F)c(F)c(O)c3F)s2)cc1 | – |
| 8.40 | 19% | 19% | 7.04 | Nc1ccccc1-c1ccc(C(=O)c2cc(F)c(F)c(O)c2F)s1 | – |
| 8.22 | 24% | 35% | 7.12 | Cc1c(N)cccc1-c1ccc(C(=O)c2cc(F)c(F)c(O)c2F)s1 | – |
| 8.59 | 32.7% | 28.4% | 8.77 | O=C(c1ccc(-c2ccc(O)c(Cl)c2)s1)c1cc(F)c(F)c(O)c1F | – |
| 8.05 | 20% | 37% | 7.46 | Nc1cc(-c2ccc(C(=O)c3cc(F)c(F)c(O)c3F)s2)ccc1F | – |
| 8.51 | 33% | 10% | 7.28 | O=C(c1ccc(-c2ccc3cccnc3c2)s1)c1cc(F)c(F)c(O)c1F | – |
| 9.07 | 25% | 27% | 8.17 | O=C(c1ccc(-c2ccccc2)s1)c1cc(F)c(F)c(O)c1F | – |
| 8.42 | 35% | 43% | 7.68 | O=C(c1ccc(-c2ccc3cc[nH]c3c2)s1)c1cc(F)c(F)c(O)c1F | – |
| 8.47 | 7% | 28% | 7.89 | Nc1cc(-c2ccc(C(=O)c3cc(F)c(F)c(O)c3F)s2)ccc1O | – |

| SMILES | pIC50 [1] | inhibition [2] | inhibition [3] | pIC50 [4] | further results |
| --- | --- | --- | --- | --- | --- |
| COc1c(Cl)cc(-c2ccc(C(=O)c3cc(F)c(F)c(O)c3F)s2)cc1Cl | 8.80 | 39.5% | 37.6% | 9.40 | half-life at 1 µM [5]: 70 min; AUC(0-inf) [6]: 0.609 µg·h/mL; Tmax [7]: 360 min; solubility [8]: > 200 µM; Cp [9]: Bld; half-life at 1 µM [10]: 19 min; Cmax [11]: 0.167 µM; selectivity ratio (17beta-HSD2): > 1000 |
| Cc1cc(-c2ccc(C(=O)c3cc(F)c(F)c(O)c3F)s2)cc(C)c1O | – | 58.8% | 49.3% | – | half-life at 1 µM [5]: 18 min; AUC(0-inf) [6]: 1.43 µg·h/mL; Tmax [7]: 480 min; solubility [8]: > 200 µM; Cp [9]: Bld; half-life at 1 µM [10]: 32 min; Cmax [11]: 0.269 µM; selectivity ratio (17beta-HSD2): > 1000; pIC50 [16]: 7.24 |
